According to patent US20240262819A1, “NOVEL COMPOUNDS HAVING INHIBITORY ACTIVITY AGAINST GLUCOSYLCERAMIDE SYNTHASE OR PHARMACEUTICALLY ACCEPTABLE SALT THEREOF, PROCESSES FOR PREPARING THE SAME, AND PHARMACEUTICAL COMPOSITIONS COMPRISING THE SAME” (YUHAN CORPORATION, priority 2021, published 2024):
Read-outs that look alike come from different tables or passages of the source.

Legend:
[1] = biological target: glucosylceramide synthase (GCS) (Homo sapiens (Human), UniProt Q16739); assay: Evaluation of inhibitory activities against GCS (A549 cell lysate, NBD C6-ceramide, HPLC); type: biochemical
Chain of glucosylceramide synthase (GCS) (Q16739 whole entry): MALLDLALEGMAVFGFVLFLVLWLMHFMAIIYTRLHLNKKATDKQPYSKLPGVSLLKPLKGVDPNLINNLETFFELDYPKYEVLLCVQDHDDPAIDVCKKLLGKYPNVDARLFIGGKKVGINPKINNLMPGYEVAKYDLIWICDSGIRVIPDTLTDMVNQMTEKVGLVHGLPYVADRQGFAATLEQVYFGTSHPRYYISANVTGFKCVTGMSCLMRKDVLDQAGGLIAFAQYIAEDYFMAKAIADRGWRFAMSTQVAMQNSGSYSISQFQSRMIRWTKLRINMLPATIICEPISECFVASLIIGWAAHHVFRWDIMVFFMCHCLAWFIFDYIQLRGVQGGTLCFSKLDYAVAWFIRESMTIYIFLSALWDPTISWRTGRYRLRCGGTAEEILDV
Summary of the method: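 GCS activity in A549 cell lysate (50 mM HEPES, pH 7.3) with NBD C6-ceramide, reacted 90 min at 37 °C. Lipids were chloroform/methanol-extracted and separated by normal-phase HPLC with fluorescence detection (ex 470/em 530 nm). GlcCer fraction of peak area was normalized between DMSO and ibiglustat, and IC50 obtained by curve fitting.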

[2] = test system: GM1 production in Jurkat cells; assay: cells; type: cell-based
[3] = Evaluation of blood-brain barrier (BBB) permeability through oral administration; type: in vivo, mice; details: mice, oral, dose 30 mg/kg, 4 hr; for Kp at 4 h / concentration at 4 h: mouse, in vivo; for Kp at 4 h: read-out: Mean brain-plasma drug ratio at 4 hr
Summary of the method: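 Mice dosed orally at 10 or 30 mg/10 ml/kg, suspended in 0.5% methyl cellulose with 0.2% Tween 80. Plasma and forebrain homogenate taken 4 hours post-dose, drug measured by LC-MS/MS; brain/plasma ratio calculated from tissue concentrations.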

[4] = read-out: Mean drug concentrations in brain tissue at 4 hr
[5] = read-out: Mean drug concentrations in plasma at 4 hr
[6] = % GCS activity, A549 cell lysate, 37° C. for 90 minutes, read-out: IC50

Compound	IC50 [1] [nM]	IC50 ([2]; Homo sapiens, Jurkat, 72 h) [nM]	Kp at 4 h [3]	concentration at 4 h [3, 4] [ng/g]	concentration at 4 h [3, 5] [ng/mL]	IC50 [1, 6] [nM]	IC50 ([2]; read-out: IC50) [nM]	Mean brain-plasma drug ratio at 4 hr [3]	Mean drug concentrations in brain tissue at 4 hr [3] [ng/g]	Mean drug concentrations in plasma at 4 hr [3] [ng/mL]
COc1ccc(-c2ccc3c(c2)CC(C)(C)[C@H]3NC(=O)O[C@@H]2CN3CCC2CC3)cc1F [Example 18, (S)-quinuclidin-3-yl((R)-5-(3-fluoro-4-methoxyphenyl)-2,2-dimethyl-2,3-dihydro-1H-inden-1-yl)carbamate]	3.19	50.7	3.47	3950	1130	–	–	–	–	–
CC(C)c1cccc(-c2ccc3c(c2)CCC(C)(C)[C@H]3NC(=O)O[C@@H]2CN3CCC2CC3)c1 [Example 162, (S)-quinuclidin-3-yl((R)-6-(3-isopropylphenyl)-2,2-dimethyl-1,2,3,4-tetrahydronaphthalen-1-yl)carbamate]	7.55	1.4	3.71	3570	967	–	–	–	–	–
COc1ccc(-c2ccc3c(c2)CCC(C)(C)[C@H]3NC(=O)O[C@@H]2CN3CCC2CC3)c(F)c1 [Example 151, (S)-quinuclidin-3-yl((R)-6-(2-fluoro-4-methoxyphenyl)-2,2-dimethyl-1,2,3,4-tetrahydronaphthalen-1-yl) carbamate]	–	–	–	–	–	0.49	5.2	2.04	2441.3	1196.4
(S)-quinuclidin-3-yl((R)-7-fluoro-2,2-dimethyl-6-(4-propoxyphenyl)-1,2,3,4-tetrahydronaphthalen-1-yl) carbamate [Example 177]	–	–	–	–	–	0.25	0.43	5.444	4788.9	880.7
CCCOc1ccc(-c2cc3c(cc2F)[C@H](NC(=O)O[C@@H]2CN4CCC2CC4)C(C)(C)C3)cc1Cl [Example 87, (S)-quinuclidin-3-yl((R)-5-(3-chloro-4-propoxyphenyl)-6-fluoro-2,2-dimethyl-2,3-dihydro-1H-inden-1-yl)carbamate]	0.77	36.2	8.57	972	114	–	–	–	–	–
CCCOc1c(C)cc(-c2cc3c(cc2F)[C@H](NC(=O)O[C@@H]2CN4CCC2CC4)C(C)(C)C3)cc1C [Example 64, (S)-quinuclidin-3-yl((R)-5-(3,5-dimethyl-4-propoxyphenyl)-6-fluoro-2,2-dimethyl-2,3-dihydro-1H-inden-1-yl)carbamate]	3.92	11.6	4.43	1040	234	–	–	–	–	–
CC(C)Oc1ccc(-c2ccc3c(c2)CCC(C)(C)[C@H]3NC(=O)O[C@@H]2CN3CCC2CC3)cc1Cl [Example 150, (S)-quinuclidin-3-yl((R)-6-(3-chloro-4-isopropoxyphenyl)-2,2-dimethyl-1,2,3,4-tetrahydronaphthalen-1-yl) carbamate]	–	–	–	–	–	1.26	3.27	1.471	1520.5	1065
CCCOc1c(C)cc(-c2ccc3c(c2)CCC(C)(C)[C@H]3NC(=O)O[C@@H]2CN3CCC2CC3)cc1C [Example 148, (S)-quinuclidin-3-yl((R)-6-(3,5-dimethyl-4-propoxyphenyl)-2,2-dimethyl-1,2,3,4-tetrahydronaphthalen-1-yl)carbamate]	1.6	8.86	1.82	1680	951	–	–	–	–	–
CCCOc1c(C)cc(-c2cc3c(cc2F)[C@H](NC(=O)O[C@@H]2CN4CCC2CC4)C(C)(C)CC3)cc1C [Example 181, (S)-quinuclidin-3-yl((R)-6-(3,5-dimethyl-4-propoxyphenyl)-7-fluoro-2,2-dimethyl-1,2,3,4-tetrahydronaphthalen-1-yl)carbamate]	1.85	7.1	1.65	848	510	–	–	–	–	–
Cc1cc(OC(C)C)ccc1-c1cc2c(cc1F)[C@H](NC(=O)O[C@@H]1CN3CCC1CC3)C(C)(C)C2 [Example 96, (S)-quinuclidin-3-yl((R)-6-fluoro-5-(4-isopropoxy-2-methylphenyl)-2,2-dimethyl-2,3-dihydro-1H-inden-1-yl)carbamate]	0.08	0.76	6.24	5360	864	–	–	–	–	–
COc1ccc(-c2cc3c(cc2F)[C@H](NC(=O)O[C@@H]2CN4CCC2CC4)C(C)(C)C3)cc1F [Example 89, (S)-quinuclidin-3-yl((R)-6-fluoro-5-(3-fluoro-4-methoxyphenyl)-2,2-dimethyl-2,3-dihydro-1H-inden-1-yl)carbamate]	0.621	43.5	5.42	4040	751	–	–	–	–	–
CCOc1ccc(-c2ccc3c(c2)CC(C)(C)[C@H]3NC(=O)O[C@@H]2CN3CCC2CC3)c(Cl)c1 [Example 44, (S)-quinuclidin-3-yl((R)-5-(2-chloro-4-ethoxyphenyl)-2,2-dimethyl-2,3-dihydro-1H-inden-1-yl)carbamate]	0.17	2.3	4.79	8860	1850	–	–	–	–	–
Cc1cc(-c2ccc3c(c2)CC(C)(C)[C@H]3NC(=O)O[C@@H]2CN3CCC2CC3)ccc1OC(C)C [Example 34, (S)-quinuclidin-3-yl((R)-5-(4-isopropoxy-3-methylphenyl)-2,2-dimethyl-2,3-dihydro-1H-inden-1-yl)carbamate]	1.31	2.3	14	10700	767	–	–	–	–	–
CCCc1ccc(-c2cc3c(cc2F)[C@H](NC(=O)O[C@@H]2CN4CCC2CC4)C(C)(C)CC3)cc1 [Example 171, (S)-quinuclidin-3-yl((R)-7-fluoro-2,2-dimethyl-6-(4-propylphenyl)-1,2,3,4-tetrahydronaphthalen-1-yl)carbamate]	0.19	1.4	3.88	2900	748	–	–	–	–	–
Cc1cc(OC(C)C)ccc1-c1ccc2c(c1)CC(C)(C)[C@H]2NC(=O)O[C@@H]1CN2CCC1CC2 [Example 36, (S)-quinuclidin-3-yl((R)-5-(4-isopropoxy-2-methylphenyl)-2,2-dimethyl-2,3-dihydro-1H-inden-1-yl)carbamate]	0.13	0.7	3.65	6650	1830	–	–	–	–	–
CC(C)Oc1ccc(-c2cc3c(cc2F)[C@H](NC(=O)O[C@@H]2CN4CCC2CC4)C(C)(C)CC3)cc1 [Example 197, (S)-quinuclidin-3-yl((R)-7-fluoro-6-(4-isopropoxyphenyl)-2,2-dimethyl-1,2,3,4-tetrahydronaphthalen-1-yl)carbamate]	0.2	0.94	3.56	6690	1880	–	–	–	–	–
